Like-named read-outs stand apart in the source and are kept apart here.
Details: for phase-transformed into gamma-glycine: after 24 hours

phase-transformed into gamma-glycine (100 g glass beads 1.7 to 2.0 mm, 300 g group 1, 500 rpm): 100%
gamma-glycine (stable phase crystal) obtained (glass beads 1.7 to 2.0 mm, about 100 to 200 g, 300 rpm, stirred/ground 24-48 hours, groups 1 to 6): 100%
time after which supersaturation of stable phase crystals (gamma-glycine) increased (magnetic bar in propeller stirring device, 300 rpm): about 1,500 minutes
stable phase crystals obtained (magnetic bar stirred/ground at 300 rpm for about 65 hours or more (6,800 minutes)): 100%
stable phase crystal (gamma-glycine) precipitation rate (simple propeller stirrer, no physical grinding, 300 g, 300 rpm, about 15 days, groups 1 to 6 of Table 1): 0%
phase transformation from alpha-glycine to gamma-glycine (zirconia beads 5.0 to 7.0 mm, 100 rpm, 24 hours plus further 48 hours stirring): 100%
phase-transformed into gamma-glycine (zirconia beads 5.0 to 7.0 mm, 300 g group 1, 100 rpm): 0%
Compound: NCC(=O)O [alpha-glycine, glycine]

Reference: US12350782B2, “Method for producing stable-phase crystals using physical grinding” (University-Industry Cooperation Group of Kyung Hee …, priority 2021, dated 2025)
